Source: ChEMBL document CHEMBL3991601, “The target landscape of clinical kinase drugs” (Science, 2017)
Active and inactive are the calls of the source. For most assays here, no stated cut-off is given here; in the data, actives have a measured Kd and inactives only a lower limit.

These compounds were tested against Tyrosine-protein kinase ABL1 (Homo sapiens, UniProt P00519).

SMILES	Kd
O=c1sn(-c2cccc3ccccc23)c(=O)n1Cc1ccccc1 [TIDEGLUSIB]	> 30 µM (inactive)
CC(=O)Nc1cccc(-n2c(=O)n(C3CC3)c(=O)c3c(Nc4ccc(I)cc4F)n(C)c(=O)c(C)c32)c1 [TRAMETINIB]	> 30 µM (inactive)
CN1N=C(N)c2cn([C@@H]3O[C@H](COP(=O)(O)O)[C@@H](O)[C@H]3O)c3ncnc1c23 [TRICIRIBINE PHOSPHATE]	> 30 µM (inactive)

These compounds were tested against T1, Activin receptor type-1 (Homo sapiens, UniProt Q04771).
T1 sequence (Q04771 whole entry): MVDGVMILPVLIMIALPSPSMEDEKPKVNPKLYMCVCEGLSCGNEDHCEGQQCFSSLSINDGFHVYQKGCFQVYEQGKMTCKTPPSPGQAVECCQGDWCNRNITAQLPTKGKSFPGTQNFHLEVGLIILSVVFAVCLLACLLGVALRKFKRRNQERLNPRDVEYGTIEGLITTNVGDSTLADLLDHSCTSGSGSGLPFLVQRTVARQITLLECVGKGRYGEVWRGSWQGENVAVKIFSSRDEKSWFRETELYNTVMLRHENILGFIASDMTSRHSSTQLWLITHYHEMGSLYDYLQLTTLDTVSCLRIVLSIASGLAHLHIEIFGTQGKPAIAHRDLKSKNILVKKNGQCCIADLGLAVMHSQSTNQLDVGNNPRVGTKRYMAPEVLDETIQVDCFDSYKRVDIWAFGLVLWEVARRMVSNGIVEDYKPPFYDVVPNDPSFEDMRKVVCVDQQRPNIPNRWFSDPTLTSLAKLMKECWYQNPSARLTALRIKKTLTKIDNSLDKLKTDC

SMILES	Kd
O=c1sn(-c2cccc3ccccc23)c(=O)n1Cc1ccccc1 [TIDEGLUSIB]	> 30 µM (inactive)
CC(=O)Nc1cccc(-n2c(=O)n(C3CC3)c(=O)c3c(Nc4ccc(I)cc4F)n(C)c(=O)c(C)c32)c1 [TRAMETINIB]	> 30 µM (inactive)
CN1N=C(N)c2cn([C@@H]3O[C@H](COP(=O)(O)O)[C@@H](O)[C@H]3O)c3ncnc1c23 [TRICIRIBINE PHOSPHATE]	> 30 µM (inactive)

These compounds were tested against Serine/threonine-protein kinase PAK 4 (Homo sapiens, UniProt O96013).
Serine/threonine-protein kinase PAK 4, sequence (O96013 whole entry): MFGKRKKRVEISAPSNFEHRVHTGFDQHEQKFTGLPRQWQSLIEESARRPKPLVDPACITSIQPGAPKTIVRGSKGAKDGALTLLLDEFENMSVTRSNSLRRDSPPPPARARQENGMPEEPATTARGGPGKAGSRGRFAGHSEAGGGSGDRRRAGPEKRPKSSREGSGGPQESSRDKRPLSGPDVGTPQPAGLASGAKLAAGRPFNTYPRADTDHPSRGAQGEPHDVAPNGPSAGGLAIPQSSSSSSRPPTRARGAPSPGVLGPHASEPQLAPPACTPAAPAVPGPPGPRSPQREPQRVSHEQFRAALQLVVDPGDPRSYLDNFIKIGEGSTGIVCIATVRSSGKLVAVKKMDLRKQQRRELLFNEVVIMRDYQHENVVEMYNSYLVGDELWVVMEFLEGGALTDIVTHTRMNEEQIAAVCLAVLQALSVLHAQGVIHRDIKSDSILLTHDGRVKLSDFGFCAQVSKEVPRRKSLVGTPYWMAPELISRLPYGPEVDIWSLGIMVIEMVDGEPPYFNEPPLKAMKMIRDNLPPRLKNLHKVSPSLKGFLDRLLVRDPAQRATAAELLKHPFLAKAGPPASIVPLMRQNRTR

SMILES	Kd
O=c1sn(-c2cccc3ccccc23)c(=O)n1Cc1ccccc1 [TIDEGLUSIB]	> 30 µM (inactive)
CC(=O)Nc1cccc(-n2c(=O)n(C3CC3)c(=O)c3c(Nc4ccc(I)cc4F)n(C)c(=O)c(C)c32)c1 [TRAMETINIB]	> 30 µM (inactive)
CN1N=C(N)c2cn([C@@H]3O[C@H](COP(=O)(O)O)[C@@H](O)[C@H]3O)c3ncnc1c23 [TRICIRIBINE PHOSPHATE]	> 30 µM (inactive)

The compounds below were run against T2, Interleukin-1 receptor-associated kinase 4 (Homo sapiens, UniProt Q9NWZ3).
T2 sequence (Q9NWZ3 whole entry): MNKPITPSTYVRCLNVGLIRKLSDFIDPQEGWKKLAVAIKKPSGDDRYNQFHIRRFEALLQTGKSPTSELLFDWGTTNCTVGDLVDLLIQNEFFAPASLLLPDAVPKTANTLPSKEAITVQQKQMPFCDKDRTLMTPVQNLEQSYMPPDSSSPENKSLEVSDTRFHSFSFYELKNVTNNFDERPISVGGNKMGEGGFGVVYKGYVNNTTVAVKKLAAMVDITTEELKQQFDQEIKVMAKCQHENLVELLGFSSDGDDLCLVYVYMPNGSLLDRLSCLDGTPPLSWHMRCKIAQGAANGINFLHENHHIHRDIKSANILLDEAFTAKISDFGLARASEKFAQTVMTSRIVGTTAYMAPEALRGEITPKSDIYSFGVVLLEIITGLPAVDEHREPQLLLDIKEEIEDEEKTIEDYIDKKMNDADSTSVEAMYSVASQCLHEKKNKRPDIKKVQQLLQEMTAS

SMILES	Kd
O=c1sn(-c2cccc3ccccc23)c(=O)n1Cc1ccccc1 [TIDEGLUSIB]	> 30 µM (inactive)
CC(=O)Nc1cccc(-n2c(=O)n(C3CC3)c(=O)c3c(Nc4ccc(I)cc4F)n(C)c(=O)c(C)c32)c1 [TRAMETINIB]	> 30 µM (inactive)
CN1N=C(N)c2cn([C@@H]3O[C@H](COP(=O)(O)O)[C@@H](O)[C@H]3O)c3ncnc1c23 [TRICIRIBINE PHOSPHATE]	> 30 µM (inactive)

What follows are compounds tested against T3, cGMP-dependent protein kinase 1 (Homo sapiens, UniProt Q13976).
T3 sequence (Q13976 whole entry): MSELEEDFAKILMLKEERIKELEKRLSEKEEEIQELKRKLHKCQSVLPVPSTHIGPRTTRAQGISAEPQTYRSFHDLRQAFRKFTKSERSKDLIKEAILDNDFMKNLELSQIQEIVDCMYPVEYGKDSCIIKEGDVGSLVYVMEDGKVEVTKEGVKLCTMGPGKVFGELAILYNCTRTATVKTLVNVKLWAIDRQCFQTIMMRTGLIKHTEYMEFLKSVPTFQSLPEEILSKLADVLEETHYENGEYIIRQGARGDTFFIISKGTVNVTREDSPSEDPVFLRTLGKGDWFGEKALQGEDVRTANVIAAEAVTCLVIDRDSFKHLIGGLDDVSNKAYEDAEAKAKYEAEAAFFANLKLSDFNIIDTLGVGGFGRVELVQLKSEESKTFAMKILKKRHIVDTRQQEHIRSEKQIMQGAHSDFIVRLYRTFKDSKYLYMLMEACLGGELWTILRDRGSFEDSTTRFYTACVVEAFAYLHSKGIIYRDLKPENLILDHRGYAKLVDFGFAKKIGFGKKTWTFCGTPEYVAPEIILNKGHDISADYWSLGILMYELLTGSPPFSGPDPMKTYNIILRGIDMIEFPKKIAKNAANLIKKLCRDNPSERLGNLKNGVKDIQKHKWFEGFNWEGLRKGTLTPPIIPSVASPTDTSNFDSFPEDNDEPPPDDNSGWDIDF

SMILES	Kd
O=c1sn(-c2cccc3ccccc23)c(=O)n1Cc1ccccc1 [TIDEGLUSIB]	> 30 µM (inactive)
CC(=O)Nc1cccc(-n2c(=O)n(C3CC3)c(=O)c3c(Nc4ccc(I)cc4F)n(C)c(=O)c(C)c32)c1 [TRAMETINIB]	> 30 µM (inactive)
CN1N=C(N)c2cn([C@@H]3O[C@H](COP(=O)(O)O)[C@@H](O)[C@H]3O)c3ncnc1c23 [TRICIRIBINE PHOSPHATE]	> 30 µM (inactive)

Each compound was assayed against BMP-2-inducible protein kinase (Homo sapiens, UniProt Q9NSY1).
BMP-2-inducible protein kinase, sequence (Q9NSY1 whole entry): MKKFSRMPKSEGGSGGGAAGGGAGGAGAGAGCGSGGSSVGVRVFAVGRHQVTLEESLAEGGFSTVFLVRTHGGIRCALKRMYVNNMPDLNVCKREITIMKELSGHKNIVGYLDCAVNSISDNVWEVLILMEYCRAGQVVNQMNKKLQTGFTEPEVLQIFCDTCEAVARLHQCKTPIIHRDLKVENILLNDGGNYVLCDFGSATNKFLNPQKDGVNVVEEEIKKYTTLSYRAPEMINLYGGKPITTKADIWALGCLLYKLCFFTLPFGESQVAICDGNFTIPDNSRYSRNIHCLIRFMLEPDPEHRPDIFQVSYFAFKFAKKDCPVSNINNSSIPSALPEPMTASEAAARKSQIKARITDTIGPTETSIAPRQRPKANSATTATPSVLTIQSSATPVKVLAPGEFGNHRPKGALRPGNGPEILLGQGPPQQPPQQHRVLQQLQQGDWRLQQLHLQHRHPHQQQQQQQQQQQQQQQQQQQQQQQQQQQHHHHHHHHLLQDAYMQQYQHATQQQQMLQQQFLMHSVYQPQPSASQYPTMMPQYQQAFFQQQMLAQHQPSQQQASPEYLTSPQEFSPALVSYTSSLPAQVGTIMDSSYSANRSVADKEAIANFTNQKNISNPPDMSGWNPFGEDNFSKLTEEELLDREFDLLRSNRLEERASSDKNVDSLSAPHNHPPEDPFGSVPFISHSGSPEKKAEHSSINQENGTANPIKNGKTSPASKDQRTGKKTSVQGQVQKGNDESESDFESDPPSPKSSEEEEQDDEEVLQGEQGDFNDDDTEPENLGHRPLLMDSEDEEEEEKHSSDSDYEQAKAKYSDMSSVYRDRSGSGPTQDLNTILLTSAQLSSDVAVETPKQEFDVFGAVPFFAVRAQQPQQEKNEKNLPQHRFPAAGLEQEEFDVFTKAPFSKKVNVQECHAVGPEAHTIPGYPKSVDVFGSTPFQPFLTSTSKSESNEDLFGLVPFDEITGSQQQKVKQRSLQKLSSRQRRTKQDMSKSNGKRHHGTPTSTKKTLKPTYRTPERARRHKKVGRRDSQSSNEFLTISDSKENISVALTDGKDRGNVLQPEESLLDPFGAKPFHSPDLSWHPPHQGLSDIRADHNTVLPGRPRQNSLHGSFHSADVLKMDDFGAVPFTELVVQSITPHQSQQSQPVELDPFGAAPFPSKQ

SMILES	Kd
O=c1sn(-c2cccc3ccccc23)c(=O)n1Cc1ccccc1 [TIDEGLUSIB]	> 30 µM (inactive)
CC(=O)Nc1cccc(-n2c(=O)n(C3CC3)c(=O)c3c(Nc4ccc(I)cc4F)n(C)c(=O)c(C)c32)c1 [TRAMETINIB]	> 30 µM (inactive)
CN1N=C(N)c2cn([C@@H]3O[C@H](COP(=O)(O)O)[C@@H](O)[C@H]3O)c3ncnc1c23 [TRICIRIBINE PHOSPHATE]	> 30 µM (inactive)

The compounds below were run against Ephrin type-A receptor 4 (Homo sapiens, UniProt P54764).
Ephrin type-A receptor 4, sequence (P54764 whole entry): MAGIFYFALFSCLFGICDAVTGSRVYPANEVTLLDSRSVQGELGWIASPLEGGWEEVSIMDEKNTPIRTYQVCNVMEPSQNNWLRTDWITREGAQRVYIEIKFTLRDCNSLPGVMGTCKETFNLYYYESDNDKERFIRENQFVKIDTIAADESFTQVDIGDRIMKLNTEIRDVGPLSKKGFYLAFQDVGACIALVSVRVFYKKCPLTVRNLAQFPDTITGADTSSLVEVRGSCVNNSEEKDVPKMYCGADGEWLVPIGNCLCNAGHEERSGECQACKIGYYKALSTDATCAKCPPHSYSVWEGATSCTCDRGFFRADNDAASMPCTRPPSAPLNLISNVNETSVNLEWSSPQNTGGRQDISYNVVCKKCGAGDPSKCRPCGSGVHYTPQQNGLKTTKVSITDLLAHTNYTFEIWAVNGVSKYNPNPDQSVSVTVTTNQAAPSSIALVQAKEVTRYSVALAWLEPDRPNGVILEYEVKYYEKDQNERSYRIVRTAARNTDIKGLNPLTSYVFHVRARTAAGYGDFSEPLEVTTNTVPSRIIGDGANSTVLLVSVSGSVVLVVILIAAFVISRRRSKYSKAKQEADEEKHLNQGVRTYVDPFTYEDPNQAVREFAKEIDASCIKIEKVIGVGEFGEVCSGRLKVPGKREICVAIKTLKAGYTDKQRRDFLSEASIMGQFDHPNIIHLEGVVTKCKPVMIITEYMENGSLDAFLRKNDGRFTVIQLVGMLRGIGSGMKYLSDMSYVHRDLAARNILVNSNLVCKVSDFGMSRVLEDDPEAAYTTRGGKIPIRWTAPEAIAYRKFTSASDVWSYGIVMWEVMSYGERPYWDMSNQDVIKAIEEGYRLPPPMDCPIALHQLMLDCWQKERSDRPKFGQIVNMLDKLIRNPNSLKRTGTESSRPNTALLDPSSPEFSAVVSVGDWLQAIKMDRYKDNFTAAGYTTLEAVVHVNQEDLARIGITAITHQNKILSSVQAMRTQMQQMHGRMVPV

SMILES	Kd
O=c1sn(-c2cccc3ccccc23)c(=O)n1Cc1ccccc1 [TIDEGLUSIB]	> 30 µM (inactive)
CC(=O)Nc1cccc(-n2c(=O)n(C3CC3)c(=O)c3c(Nc4ccc(I)cc4F)n(C)c(=O)c(C)c32)c1 [TRAMETINIB]	> 30 µM (inactive)
CN1N=C(N)c2cn([C@@H]3O[C@H](COP(=O)(O)O)[C@@H](O)[C@H]3O)c3ncnc1c23 [TRICIRIBINE PHOSPHATE]	> 30 µM (inactive)

What follows are compounds tested against Tyrosine-protein kinase Lck (Homo sapiens, UniProt P06239).
Tyrosine-protein kinase Lck, sequence (P06239 whole entry): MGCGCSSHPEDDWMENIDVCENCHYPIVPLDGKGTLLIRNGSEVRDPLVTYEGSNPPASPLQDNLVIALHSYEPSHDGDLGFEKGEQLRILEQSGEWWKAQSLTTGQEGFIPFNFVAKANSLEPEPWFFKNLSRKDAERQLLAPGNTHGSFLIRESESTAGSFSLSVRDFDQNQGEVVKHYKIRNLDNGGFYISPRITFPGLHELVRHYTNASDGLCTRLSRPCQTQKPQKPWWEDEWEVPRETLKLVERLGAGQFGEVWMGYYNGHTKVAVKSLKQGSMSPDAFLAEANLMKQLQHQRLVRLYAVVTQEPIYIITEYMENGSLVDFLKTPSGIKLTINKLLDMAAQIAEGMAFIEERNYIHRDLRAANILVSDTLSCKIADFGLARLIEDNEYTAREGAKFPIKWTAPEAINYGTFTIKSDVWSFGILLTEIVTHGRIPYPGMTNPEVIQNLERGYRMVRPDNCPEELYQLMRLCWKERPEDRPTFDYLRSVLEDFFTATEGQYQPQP

SMILES	Kd
O=c1sn(-c2cccc3ccccc23)c(=O)n1Cc1ccccc1 [TIDEGLUSIB]	> 30 µM (inactive)
CC(=O)Nc1cccc(-n2c(=O)n(C3CC3)c(=O)c3c(Nc4ccc(I)cc4F)n(C)c(=O)c(C)c32)c1 [TRAMETINIB]	> 30 µM (inactive)
CN1N=C(N)c2cn([C@@H]3O[C@H](COP(=O)(O)O)[C@@H](O)[C@H]3O)c3ncnc1c23 [TRICIRIBINE PHOSPHATE]	> 30 µM (inactive)

The compounds below were run against Serine/threonine-protein kinase N2 (Homo sapiens, UniProt Q16513).
Serine/threonine-protein kinase N2, sequence (Q16513 whole entry): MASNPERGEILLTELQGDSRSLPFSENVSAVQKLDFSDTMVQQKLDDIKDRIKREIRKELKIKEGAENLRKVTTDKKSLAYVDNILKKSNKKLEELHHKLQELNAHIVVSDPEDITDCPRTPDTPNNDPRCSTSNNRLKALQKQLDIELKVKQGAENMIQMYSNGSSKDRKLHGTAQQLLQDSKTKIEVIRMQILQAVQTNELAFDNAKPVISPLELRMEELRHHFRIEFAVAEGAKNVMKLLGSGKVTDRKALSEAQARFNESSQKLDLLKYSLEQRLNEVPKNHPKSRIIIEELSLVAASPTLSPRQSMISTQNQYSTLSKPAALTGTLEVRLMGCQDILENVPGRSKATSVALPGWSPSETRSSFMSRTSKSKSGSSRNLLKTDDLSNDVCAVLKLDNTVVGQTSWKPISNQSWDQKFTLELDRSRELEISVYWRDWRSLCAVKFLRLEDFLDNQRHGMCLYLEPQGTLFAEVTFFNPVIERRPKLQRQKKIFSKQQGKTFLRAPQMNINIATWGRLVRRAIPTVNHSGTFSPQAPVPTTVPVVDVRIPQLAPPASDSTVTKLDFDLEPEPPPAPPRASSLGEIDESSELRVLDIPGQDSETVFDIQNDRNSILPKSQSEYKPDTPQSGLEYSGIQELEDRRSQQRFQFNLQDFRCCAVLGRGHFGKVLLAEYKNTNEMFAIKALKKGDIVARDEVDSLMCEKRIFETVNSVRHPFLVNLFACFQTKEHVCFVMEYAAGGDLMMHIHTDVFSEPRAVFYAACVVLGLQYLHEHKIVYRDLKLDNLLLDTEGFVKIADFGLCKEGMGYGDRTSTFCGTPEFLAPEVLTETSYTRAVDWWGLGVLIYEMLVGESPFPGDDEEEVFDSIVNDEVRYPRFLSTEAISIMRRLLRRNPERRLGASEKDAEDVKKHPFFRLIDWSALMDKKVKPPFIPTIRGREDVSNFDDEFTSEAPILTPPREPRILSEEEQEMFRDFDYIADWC

SMILES	Kd
O=c1sn(-c2cccc3ccccc23)c(=O)n1Cc1ccccc1 [TIDEGLUSIB]	> 30 µM (inactive)
CC(=O)Nc1cccc(-n2c(=O)n(C3CC3)c(=O)c3c(Nc4ccc(I)cc4F)n(C)c(=O)c(C)c32)c1 [TRAMETINIB]	> 30 µM (inactive)
CN1N=C(N)c2cn([C@@H]3O[C@H](COP(=O)(O)O)[C@@H](O)[C@H]3O)c3ncnc1c23 [TRICIRIBINE PHOSPHATE]	> 30 µM (inactive)

What follows are compounds tested against T4, Exosome RNA helicase MTR4 (Homo sapiens, UniProt P42285).
T4 sequence (P42285 whole entry): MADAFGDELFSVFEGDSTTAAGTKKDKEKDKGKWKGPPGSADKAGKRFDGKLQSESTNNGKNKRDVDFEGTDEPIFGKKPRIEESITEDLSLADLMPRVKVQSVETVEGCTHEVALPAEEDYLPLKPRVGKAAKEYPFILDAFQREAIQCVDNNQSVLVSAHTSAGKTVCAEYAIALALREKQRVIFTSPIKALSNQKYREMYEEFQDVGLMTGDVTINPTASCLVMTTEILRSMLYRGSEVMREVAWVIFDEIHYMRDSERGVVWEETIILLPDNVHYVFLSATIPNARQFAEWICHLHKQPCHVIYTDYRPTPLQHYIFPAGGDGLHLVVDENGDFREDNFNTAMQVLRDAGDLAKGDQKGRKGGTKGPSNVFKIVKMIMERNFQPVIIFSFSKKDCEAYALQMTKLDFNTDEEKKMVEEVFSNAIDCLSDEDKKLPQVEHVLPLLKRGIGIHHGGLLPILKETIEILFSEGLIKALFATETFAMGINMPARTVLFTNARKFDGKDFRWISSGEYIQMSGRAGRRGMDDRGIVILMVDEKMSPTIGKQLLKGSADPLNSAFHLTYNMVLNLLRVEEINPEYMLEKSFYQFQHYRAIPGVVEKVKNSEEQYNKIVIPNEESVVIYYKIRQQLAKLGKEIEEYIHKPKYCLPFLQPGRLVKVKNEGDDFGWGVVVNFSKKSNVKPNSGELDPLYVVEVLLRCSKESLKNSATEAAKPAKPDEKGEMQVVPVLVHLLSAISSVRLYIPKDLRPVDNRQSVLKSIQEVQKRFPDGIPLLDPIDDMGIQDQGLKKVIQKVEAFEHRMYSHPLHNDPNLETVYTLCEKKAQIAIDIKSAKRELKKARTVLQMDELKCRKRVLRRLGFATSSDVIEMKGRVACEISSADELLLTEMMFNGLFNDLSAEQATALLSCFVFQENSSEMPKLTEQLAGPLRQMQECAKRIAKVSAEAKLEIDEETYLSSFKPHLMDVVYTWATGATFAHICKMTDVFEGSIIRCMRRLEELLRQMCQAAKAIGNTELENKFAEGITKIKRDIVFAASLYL

SMILES	Kd
O=c1sn(-c2cccc3ccccc23)c(=O)n1Cc1ccccc1 [TIDEGLUSIB]	> 30 µM (inactive)
CC(=O)Nc1cccc(-n2c(=O)n(C3CC3)c(=O)c3c(Nc4ccc(I)cc4F)n(C)c(=O)c(C)c32)c1 [TRAMETINIB]	> 30 µM (inactive)
CN1N=C(N)c2cn([C@@H]3O[C@H](COP(=O)(O)O)[C@@H](O)[C@H]3O)c3ncnc1c23 [TRICIRIBINE PHOSPHATE]	> 30 µM (inactive)
